# Values of other authors as cited in PMC13366575, “Structure−Activity Relationships among Inhibitors of Acinetobacter baumannii and Klebsiella pneumoniae 1-Deoxy-D-xylulose 5-Phosphate Reductoisomerase (DXR/IspC) − A Promising Target for Antibiotic Development” (ACS Infectious Diseases, 2026).
# Biological target: KpIspC (Klebsiella pneumoniae, UniProt A6T4X5)
# Sequence (A6T4X5 entry or part of it): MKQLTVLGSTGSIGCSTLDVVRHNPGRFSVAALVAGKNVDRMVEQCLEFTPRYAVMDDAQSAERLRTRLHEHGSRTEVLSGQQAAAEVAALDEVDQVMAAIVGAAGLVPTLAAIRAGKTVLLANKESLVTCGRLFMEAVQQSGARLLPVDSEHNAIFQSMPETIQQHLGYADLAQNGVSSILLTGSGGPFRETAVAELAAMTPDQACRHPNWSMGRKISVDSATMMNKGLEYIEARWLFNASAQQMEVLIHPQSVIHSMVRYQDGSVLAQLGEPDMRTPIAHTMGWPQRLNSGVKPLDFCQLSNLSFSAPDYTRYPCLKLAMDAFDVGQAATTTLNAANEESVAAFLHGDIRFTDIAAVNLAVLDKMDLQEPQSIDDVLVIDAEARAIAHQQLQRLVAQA
smiles,measurement,value
"O=CN(O)CCCP(=O)(O)O [Compound 1a, Fosmidomycin]",IC50,20 nM
